The text below walks through data of US8492344B2, “PDK inhibitor compounds and methods of use thereof” (University of Florida Research Foundation, priority 2008, dated 2013).

In one series the test system is PDH activity. Description: PDH activity in human fibroblast cultures (14CO2 from [1-14C]-pyruvate). It is filed as cell-based. The note with it: for PDH activity stimulation at 0.25 mM: tested at 0.25 mM, data not shown; for Potency relative to DCA in improving PDH activity at the lowest concentration tested: dose-response 0.01 to 5 mM, lowest concentration printed as 0.01 μM; for Potency relative to DCA in increasing PDH activity / Change of PDH activity at 5 mM: dose-response; for Potency relative to DCA in increasing PDH activity: 0.01 mM; for PDH activity vs DMSO control (result in words): initial studies, maximum feasible dose (0.25 to 2 mM), 24 h, 3 cell lines, p≦0.05. On the procedure:
PDH complex activity was measured by the rate of ^14C formation from [1-^14C]-labeled pyruvate, as described in Mitochondrion 6:126-135 (2006) or Mitochondrion. 7: 253-259 (2007). Fibroblasts harvested by trypsinization from a confluent T-75 flask were washed in phosphate-buffered saline (PBS) and resuspended in PBS containing the serine protease inhibitors leupeptin and phenylmethylsulfonyl fluoride (PMSF). Cells were incubated for 15 min at 37° C. with DCA. Reactions were halted by addition of a stop solution (25 mM NaF, 25 mM EDTA, 4 mM dithiothreitol, 40% ethanol), and cells were lysed by repeated freezing and thawing. Sixteen aliquots of each fibroblast sample were assayed in test tubes for enzyme activity. Four samples that contained only lysate and water and four samples that also contained thiamine pyrophosphate and coenzyme A were assayed at reaction times of 5 and 10 min. A ^14C-labeled pyruvate aliquot of known specific activity was added to the cell lysates and the test tubes were immediately closed with a rubber stopper. The stopper was outfitted with a center well (Kimble-Kontes, Vineland, N.J.) that contained 1 cm^2 chromatography paper soaked with 100 μl hyamine hydroxide. Reactions were halted by adding stopping buffer. The ^14CO2 evolved due to PDH-mediated catalysis and trapped in the paper was determined by liquid scintillation. PDH specific activity was expressed as nmol ^14CO2 produced/min/mg protein. Excess cell lysate was used to determine total protein.
The compounds (predicted to interact with PDK2) were tested in human fibroblast cultures from three healthy subjects for their effect on PDH activity. DCA and dimethyl sulfoxide (DMSO) were used as positive and vehicle controls, respectively. Drugs were dissolved in DMSO and were used at maximum feasible dose in initial studies (0.25 to 2 mM). For dose-response experiments, concentrations used were: 0.01, 0.05, 0.1, 0.5, 1, and 5 mM. DCA was used as positive control. Cells were exposed to media with DCA, NCI compounds or DMSO vehicle for the final 24 h of culture.
Primary cultures of fibroblasts were grown at 37° C. in a humidified 5% CO2/95% air atmosphere in DMEM supplemented with 20% (v/v) FBS, 100 U/mL penicillin, 100 μg/mL streptomycin, and 6 mM L-glutamine.
Cell lysates treated with DCA or NCI compounds were incubated in a reaction buffer that contained [1-^14C]-pyruvate. PDH activity was measured by quantitation of liberated ^14CO2. (Han et al., 2007. Down-regulation of rat pyruvate dehydrogensae E1a gene by self-complementary adeno-associated virus-mediated small interfering RNA delivery. Mitochondrion. 7: 253-259). Each sample was run in triplicate, with appropriate blanks.

The next series in a line: Solubility in DMSO. It is filed as physicochemical.

`O=C(O)CS(=O)(=O)O` [Compound 5, 2-sulfoacetic acid]: the “PDH activity stimulation at 0.25 mM” value with PDH activity is reported as “none of these compounds stimulated PDH activity”. Moreover, in the series “Solubility in DMSO”, the “Solubility in DMSO” value is given as “poorly soluble in DMSO”.
The corresponding values for `O=C(O)Cc1nnn[nH]1` [Compound 6, 2-(2H-tetrazol-5-yl)acetic acid] are “none of these compounds stimulated PDH activity” and “poorly soluble in DMSO”.
The corresponding values for `O=C(O)C(=O)C(=O)O` [Compound 7, 2-oxopropanedioic acid] are “none of these compounds stimulated PDH activity” and “poorly soluble in DMSO”.
Consider `CC(=CC(=O)O)C(=O)O` [Compound 10, 2-methylbut-2-enedioic acid], for which, in the series with PDH activity, the “Potency relative to DCA in improving PDH activity at the lowest concentration tested” value was “may be more potent than DCA”, the “Potency relative to DCA in increasing PDH activity” value was “more potent than DCA”, the “Change of PDH activity at 5 mM” value is “significant decrease in PDH activity” and the “PDH activity vs DMSO control (result in words)” value (“PDH activity vs DMSO control” below) is on record as “significantly increased PDH activity”.
As to `CC(O)C(O)C(=O)O` (stereo not shown) [Compound 12, 2,3-dihydroxybutanoic acid], the “PDH activity vs DMSO control” value in the series with PDH activity is “significantly increased PDH activity”.
For `O=C(O)Cc1cnc[nH]1` [Compound 14, 2-(3H-imidazol-4-yl)acetic acid], in the series with PDH activity, the “Potency relative to DCA in improving PDH activity at the lowest concentration tested” value is given as “may be more potent than DCA”, the “Potency relative to DCA in increasing PDH activity” value is on record as “more potent than DCA”, the “Change of PDH activity at 5 mM” value was “increased PDH activity” and the “PDH activity vs DMSO control” value is “significantly increased PDH activity”.
As for `C/C(Cl)=C\C(=O)O` [Compound 18, (E)-3-chlorobut-2-enoic acid], in the series on PDH activity, the “Change of PDH activity at 5 mM” value is “significant decrease in PDH activity” and the “PDH activity vs DMSO control” value is recorded as “significantly increased PDH activity”.
Consider `C/C=C\C(=O)O` [Compound 24, (Z)-but-2-enoic acid], for which, in the series on PDH activity, the “PDH activity vs DMSO control” value is “significantly increased PDH activity”.
On the same count and under the same terms, under `O=CNCC(=O)O` [Compound 25, 2-formamidoacetic acid] stands “significantly increased PDH activity”.
